{"source": "patent US20120015939A1", "about": "“TOPICAL TREATMENT OF NEUROPATHIC PAIN AND METHODS OF DIAGNOSIS” (Arcion Therapeutics, Inc., priority 2010, published 2012)", "key": {"clinical": {"assay": "clinical", "conditions": "human, in vivo", "excerpt": "In study CLO-027, blood samples for PK analysis were obtained at baseline, and at Weeks 2 and 12 of treatment."}, "[1]": {"conditions": "topical 0.1% and 0.2% clonidine", "protocol": "The dosage formulation is administered from once a day to several times a day, depending on the patient. […] The dose is determined by the region of pain. […] The area treated is constrained by the systemic dosing."}, "[2]": {"test_system": "pain associated with painful diabetic neuropathy (PDN)", "procedure": "Pain was assessed each day using a pain diary using a standardized numerical pain rating scale (NPRS). The average pain for each week was calculated and the difference from baseline was determined (week x minus baseline). […] The baseline pain scores were imputed for missing data arising from premature withdrawal from the study (BOCF, baseline observation carried forward).\nCapsaicin 0.1% was applied to the pretibial area between the knee and ankle in each patient. The area was occluded for 30 minutes, at which time patients rated the painfulness of the capsaicin stimulus. It was reasoned that in patients with PDN that the afferented group would detect and rate the capsaicin stimulus as painful, while the deafferented group would fail to detect the stimulus."}, "[3]": {"test_system": "painful diabetic neuropathy", "conditions": "systemic clonidine by transdermal patches; cross-over; cited from earlier work"}, "[4]": {"test_system": "painful diabetic neuropathy", "conditions": "cited from earlier work"}, "[5]": {"conditions": "in vivo; cited from earlier work"}}, "note": "Like-named read-outs stand apart in the source and are kept apart here.", "data": [{"compound": "Clc1cccc(Cl)c1N=C1NCCN1", "note": "[clonidine]", "values": [{"measurement": "concentration at 2 weeks", "setting": "clinical", "value": 0.017, "unit": "ng/mL"}, {"measurement": "concentration at 12 weeks", "setting": "clinical", "value": 0.019, "unit": "ng/mL"}, {"measurement": "Mean blood level", "setting": "[1]", "value": "below 0.1 ng/mg"}, {"measurement": "Patients with no detectable clonidine in the blood", "setting": "[1]", "value": "one third of patients had no detectable clonidine in the blood"}, {"measurement": "Efficacy over placebo in relieving diabetic pain (change in NPRS over time)", "setting": "[2]; capsaicin pain rating of two or more, 0 to 10 scale (FIG. 4C)", "value": "significantly superior to placebo"}, {"measurement": "Efficacy over placebo in relieving diabetic pain (change in NPRS over time)", "setting": "[2]; patients who did not detect the capsaicin stimulus (FIG. 4A)", "value": "no efficacy over placebo"}, {"measurement": "Efficacy over placebo in relieving diabetic pain (change in NPRS over time)", "setting": "[2]; subjects who detected capsaicin, pain rating > 0 (FIG. 4B)", "value": "significantly superior to placebo"}, {"measurement": "Difference in pain between clonidine patches and placebo patches", "setting": "[3]", "value": "no statistically significant difference"}, {"measurement": "Pain reduction relative to placebo", "setting": "[4]; responders rechallenged at highest patch dosage, p<0.015", "value": "modest although statistically significant"}, {"measurement": "Patients considered clonidine responders", "setting": "[4]; twelve of forty-one patients who completed the initial course of treatment", "value": 29, "unit": "%"}, {"measurement": "Lower threshold blood level considered necessary to treat hypertension", "setting": "[5]", "value": 0.200, "unit": "ng/mL"}]}]}
